Results taken from patent US20240140957A1, “BRIDGED COMPOUNDS AS KRAS G12D INHIBITOR AND DEGRADER AND THE USE THEREOF” (BeiGene Switzerland GmbH, priority 2021, published 2024).

Assays:
[1] = target: WT KRAS:SOS1 (Homo sapiens, UniProt P01116); assay: KRAS WT:SOS1 GDP TR-FRET assay; type: binding; conditions: GST-WT KRAS 37.5 nM, GDP 10 μM, His-SOS1 18 nM
Experimental: (§1) KRAS:SOS1 GDP TR-FRET Assay
(§2) This assay was used to identify compounds which competitively interact with the binding of KRAS protein to SOS1 in the presence of GDP. […] All protein and reaction solutions were prepared in assay buffer containing DPBS pH7.5, 0.1% BSA, and 0.05% Tween 20. Purified GST-tagged WT KRAS or KRAS G12D protein (37.5 nM final assay concentration) and GDP (Sigma, 10 μM final assay concentration) mixture, a serially diluted compound (top final concentration is 50 μM or 10 uM, 3-fold serially diluted, 10 points) and His-tagged SOS1 protein (18 nM final assay concentration) were added into the assay plates (384 well microplate, black, Corning) sequentially. Plates are incubated at 24° C. for 1 hr. Following the incubation, Mab Anti-GST-Tb cryptate (Cisbio) and […] (Cisbio) were added and further incubated at 24° C. for another 1 hr. The TR-FRET signals (ex337 nm, em665 nm/620 nm) were read on BMG PHERAstar FSX instrument. The inhibition percentage of KRAS protein binding with SOS1 in presence of increasing concentrations of compounds was calculated based on the ratio of fluorescence at 665 nm to that at 620 nm. The IC50 value of each compound was calculated from fitting the data to the four-parameter logistic model by Dotmatics.

[2] = system: pERK1/2 (THR202/TYR204) in AsPC-1 cells; assay: pERK Assay (HTRF) in AsPC-1 cells; type: cell-based; conditions: Homo sapiens, ASPC1, 2 h compound treatment
Experimental: AsPC-1 cell line was used in this study. […] 30000 cells per well were seeded into a 96-well plate and incubated overnight. […] After 2 h compound treatment, cells were lysed, and the pERK1/2 (THR202/TYR204) level in the cell lysates was detected by HTRF kit (Cisbio). In brief, a total of 16 μL of cell lysate from each well of a 96-well plate was transferred to a 384-well white assay plate. Lysate from each well was incubated with 2 μL of Eu3+-cryptate (donor) labeled anti-phospho-ERK1/2 and 2 μL of D2 (acceptor) labeled anti-phospho-ERK1/2 antibodies (Cisbio) overnight in dark at room temperature. When donor and acceptor are in close proximity, excitation of the donor with laser triggers a Fluorescence Resonance Energy Transfer (FRET) towards the acceptor, which in turn fluoresces at 655 nm wavelength. FRET signals were measured using a PHERAstar FSX reader (BMG Labtech).

[3] = target: KRAS G12D:SOS1 (Homo sapiens, UniProt P01116, G12D); assay: KRAS G12D:SOS1 GDP TR-FRET assay; type: binding; conditions: GST-KRAS G12D 37.5 nM, GDP 10 μM, His-SOS1 18 nM
Sequence of KRAS G12D:SOS1 (P01116 1-188 isoform P01116-2 G12D): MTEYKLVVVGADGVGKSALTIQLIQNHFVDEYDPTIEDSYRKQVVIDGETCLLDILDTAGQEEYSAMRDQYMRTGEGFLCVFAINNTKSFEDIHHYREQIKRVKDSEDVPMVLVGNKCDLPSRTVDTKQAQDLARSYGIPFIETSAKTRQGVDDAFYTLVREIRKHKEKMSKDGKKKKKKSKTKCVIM
Experimental: as §1, §2

[4] = target: GDP-loaded KRAS G12D (Homo sapiens, UniProt P01116, G12D); assay: KRAS G12D Probe Displacement Assay; type: binding; conditions: KRAS G12D 0.5 nM, biotinylated probe 2 4 nM; Table 6 letters; read-out: KRAS G12D Probe Displacement Assay IC50 (class)
Sequence of GDP-loaded KRAS G12D (P01116 1-188 isoform P01116-2 G12D): as above

Sequence of WT KRAS:SOS1 (P01116 1-188 isoform P01116-2): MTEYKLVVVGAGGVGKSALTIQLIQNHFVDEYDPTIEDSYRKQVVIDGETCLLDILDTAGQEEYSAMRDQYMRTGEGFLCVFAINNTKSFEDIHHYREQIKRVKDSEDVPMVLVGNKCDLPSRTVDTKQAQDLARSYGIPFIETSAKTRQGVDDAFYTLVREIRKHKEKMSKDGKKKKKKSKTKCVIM

| Structure (SMILES) | IC50 [1] | IC50 [2] | IC50 [3] | IC50 [4] |
| --- | --- | --- | --- | --- |
| CN(C)CCCOc1nc(N2CCNCC2)c2cc(Cl)c(-c3cc(O)cc4ccccc34)c(F)c2n1 [Example E1, 4-(6-chloro-2-(3-(dimethylamino)propoxy)-8-fluoro-4-(piperazin-1-)quinazolin-7-yl)naphthalen-2-ol] | 26900 nM | > 10000 nM | 1870 nM | – |
| CN(C)C1CN(c2nc(N3CCNCC3)c3cc(Cl)c(-c4cc(O)cc5ccccc45)c(F)c3n2)C1 [Example E2, 4-(6-chloro-2-(3-(dimethylamino)azetidin-1-yl)-8-fluoro-4-(piperazin-1-yl)quinazolin-7-yl)naphthalen-2-ol] | > 50000 nM | – | 4850 nM | – |
| CN(C)CCCOc1nc(N2CC3CC2CN3)c2cc(Cl)c(-c3ccc(F)c4sc(N)nc34)c(F)c2n1 (centres unmarked) [Example E3, 4-(4-(2,5-diazabicyclo[2.2.1]heptan-2-yl)-6-chloro-2-(3-(dimethylamino)propoxy)-8-fluoroquinazolin-7-yl)-7-fluorobenzo[d]thiazol-2-amine] | 3290 nM | > 10000 nM | 68 nM | – |
| C[C@@H](CN1CC(F)(F)C1)Oc1nc(N2CC3CCC(C2)N3)c2cc(Cl)c(-c3ccc(F)c4sc(N)nc34)c(F)c2n1 [Example E32, 4-(4-(3,8-diazabicyclo[3.2.1]octan-3-yl)-6-chloro-2-(((S)-1-(3,3-difluoroazetidin-1-yl)propan-2-yl)oxy)-8-fluoroquinazolin-7-yl)-7-fluorobenzo[d]thiazol-2-amine] | > 10000 nM | – | 81 nM | – |
| Nc1nc2c(-c3c(Cl)cc4c(N5CCNCC5)nc(OCCCN5CCN(CCCOCCC(=O)NCCOCCNC(=O)CCCC[C@@H]6SC[C@@H]7NC(=O)N[C@@H]76)CC5)nc4c3F)ccc(F)c2s1 [Example E56, N-(2-(2-(3-(3-(4-(3-((7-(2-amino-7-fluorobenzo[d]thiazol-4-yl)-6-chloro-8-fluoro-4-(piperazin-1-yl)quinazolin-2-yl)oxy)propyl)piperazin-1-yl)propoxy)propanamido)ethoxy)ethyl)-5-((3 aS, 4S,6aR)-2-oxohexahydro-1H-thieno[3,4-d]imidazol-4-yl)pentanamide] | 370 nM | – | 21 nM | – |
| CS(=O)(=O)N1CCN(c2nc(OC[C@@H]3CCCN3CCCOCCC(=O)NCCOCCNC(=O)CCCC[C@@H]3SC[C@@H]4NC(=O)N[C@@H]43)nc3c2CCN(c2cccc4cccc(Cl)c24)C3)C[C@@H]1CC#N [Example E57, N-(2-(2-(3-(3-((S)-2-(((7-(8-chloronaphthalen-1-yl)-4-((S)-3-(cyanomethyl)-4-(methylsulfonyl)piperazin-1-yl)-5,6,7,8-tetrahydropyrido[3,4-d]pyrimidin-2-yl)oxy)methyl)pyrrolidin-1-yl)propoxy)propanamido)ethoxy)ethyl)-5-((3aS,4S,6aR)-2-oxohexahydro-1H-thieno[3,4-d]imidazol-4-yl)pentanamide] | 130 nM | – | > 10000 nM | – |
| CC(=O)N1CC(COc2nc(N3CC4CCC(C3)N4)c3cc(Cl)c(-c4nc(N)cc(C)c4C(F)(F)F)c(F)c3n2)C1 [Example E226, 1-(3-(((7-(6-amino-4-methyl-3-(trifluoromethyl)pyridin-2-yl)-4-(3,8-diazabicyclo[3.2.1]octan-3-yl)-6-chloro-8-fluoroquinazolin-2-yl)oxy)methyl)azetidin-1-yl)ethan-1-one] | – | – | – | < 50 nM |
| Cc1cc(N)nc(-c2c(Cl)cc3c(N4CC5CCC(C4)N5)nc(OCC4(CO)CC(F)C4)nc3c2F)c1C(F)(F)F (centres unmarked) [Example E227, (1-(((7-(6-amino-4-methyl-3-(trifluoromethyl)pyridin-2-yl)-4-(3,8-diazabicyclo[3.2.1]octan-3-yl)-6-chloro-8-fluoroquinazolin-2-yl)oxy)methyl)-3-fluorocyclobutyl)methanol] | – | – | – | < 50 nM |
| Cc1cc(N)nc(-c2c(Cl)cc3c(N4CC5CCC(C4)N5)nc(OCC4CS(=O)(=O)C4)nc3c2F)c1C(F)(F)F [Example E228, 3-(((7-(6-amino-4-methyl-3-(trifluoromethyl)pyridin-2-yl)-4-(3,8-diazabicyclo[3.2.1]octan-3-yl)-6-chloro-8-fluoroquinazolin-2-yl)oxy)methyl)thietane 1,1-dioxide] | – | – | – | < 50 nM |
| Cc1cc(N)nc(-c2c(Cl)cc3c(N4CC5CCC(C4)N5)nc(OCC45CCC(CC4)OC5)nc3c2F)c1C(F)(F)F [Example E229, 6-(2-((2-oxabicyclo[2.2.2]octan-4-yl)methoxy)-4-(3,8-diazabicyclo[3.2.1]octan-3-yl)-6-chloro-8-fluoroquinazolin-7-yl)-4-methyl-5-(trifluoromethyl)pyridin-2-amine] | – | – | – | < 50 nM |
| Cc1cc(N)nc(-c2c(Cl)cc3c(N4CC5CCC(C4)N5)nc(OCC4(CO)CCOC4)nc3c2F)c1C(F)(F)F (centres unmarked) [Example E230, (3-(((7-(6-amino-4-methyl-3-(trifluoromethyl)pyridin-2-yl)-4-(3,8-diazabicyclo[3.2.1]octan-3-yl)-6-chloro-8-fluoroquinazolin-2-yl)oxy)methyl)tetrahydrofuran-3-yl)methanol] | – | – | – | < 50 nM |
| Cc1cc(N)nc(-c2c(Cl)cc3c(N4CC5CCC(C4)N5)nc(OCC4C5COCC54)nc3c2F)c1C(F)(F)F (centres unmarked) [Example E231, 6-(2-((3-oxabicyclo[3.1.0]hexan-6-yl)methoxy)-4-(3,8-diazabicyclo[3.2.1]octan-3-yl)-6-chloro-8-fluoroquinazolin-7-yl)-4-methyl-5-(trifluoromethyl)pyridin-2-amine] | – | – | – | 100 to 1000 nM |
| CC(=O)N1CCC(COc2nc(N3CC4CCC(C3)N4)c3cc(Cl)c(-c4nc(N)cc(C)c4C(F)(F)F)c(F)c3n2)C1 (centres unmarked) [Example E232, 1-(3-(((7-(6-amino-4-methyl-3-(trifluoromethyl)pyridin-2-yl)-4-(3,8-diazabicyclo[3.2.1]octan-3-yl)-6-chloro-8-fluoroquinazolin-2-yl)oxy)methyl)pyrrolidin-1-yl)ethan-1-one] | – | – | – | < 50 nM |
| COC(C)(CO)COc1nc(N2CC3CCC(C2)N3)c2cc(Cl)c(-c3nc(N)cc(C)c3C(F)(F)F)c(F)c2n1 (centres unmarked) [Example E233, 3-((7-(6-amino-4-methyl-3-(trifluoromethyl)pyridin-2-yl)-4-(3,8-diazabicyclo[3.2.1]octan-3-yl)-6-chloro-8-fluoroquinazolin-2-yl)oxy)-2-methoxy-2-methyl propan-1-ol] | – | – | – | < 50 nM |
| CC(=O)N1CCCC(COc2nc(N3CC4CCC(C3)N4)c3cc(Cl)c(-c4nc(N)cc(C)c4C(F)(F)F)c(F)c3n2)C1 (centres unmarked) [Example E234, 1-(3-(((7-(6-amino-4-methyl-3-(trifluoromethyl)pyridine-2-yl)-4-(3,8-diazabicyclo[3.2.1]octan-3-yl)-6-chloro-8-fluoroquinazolin-2-yl)oxy)methyl)piperidin-1-yl)ethan-1-one] | – | – | – | 50 to 100 nM |
| CC12CC(COc3nc(N4CC5CCC(C4)N5)c4cc(C(F)(F)F)c(-c5ccc(F)c6sc(N)c(C#N)c56)c(F)c4n3)(CO1)C2 [Example E235, 4-(4-(3,8-diazabicyclo[3.2.1]octan-3-yl)-8-fluoro-2-((1-methyl-2-oxabicyclo[2.1.1]hexan-4-yl)methoxy)-6-(trifluoromethyl)quinazolin-7-yl)-2-amino-7-fluoro benzo[b]thiophene-3-carbonitrile] | – | – | – | < 50 nM |
| N#Cc1c(N)sc2c(F)ccc(-c3c(C(F)(F)F)cc4c(N5CC6CCC(C5)N6)nc(OCC56COC(C5)C6)nc4c3F)c12 [Example E236, 4-(2-((2-oxabicyclo[2.1.1]hexan-4-yl)methoxy)-4-(3,8-diazabicyclo[3.2.1]octan-3-yl)-8-fluoro-6-(trifluoromethyl)quinazolin-7-yl)-2-amino-7-fluorobenzo [b]thiophene-3-carbonitrile] | – | – | – | < 50 nM |
| Nc1cc(-c2cc3nc(OC[C@@]45CCCN4C[C@H](F)C5)nc(N4CC5CCC(C4)N5)c3cc2Cl)c(C(F)(F)F)c(C(F)(F)F)c1 [Example E237, 3-(4-(3,8-diazabicyclo[3.2.1]octan-3-yl)-6-chloro-2-(((2R,7aS)-2-fluorotetrahydro-1H-pyrrolizin-7a(5H)-yl)methoxy)quinazolin-7-yl)-4,5-bis (trifluoromethyl) aniline] | – | – | – | < 50 nM |
